Columns and labels:
Carbonic anhydrase 2 = Carbonic anhydrase 2 (Homo sapiens, UniProt P00918)
Carbonic anhydrase 1 = Carbonic anhydrase 1 (Homo sapiens, UniProt P00915)
Carbonic anhydrase 4 = biological target: T1, Carbonic anhydrase 4 (Bos taurus, UniProt Q95323)
T1 sequence (Q95323 whole entry): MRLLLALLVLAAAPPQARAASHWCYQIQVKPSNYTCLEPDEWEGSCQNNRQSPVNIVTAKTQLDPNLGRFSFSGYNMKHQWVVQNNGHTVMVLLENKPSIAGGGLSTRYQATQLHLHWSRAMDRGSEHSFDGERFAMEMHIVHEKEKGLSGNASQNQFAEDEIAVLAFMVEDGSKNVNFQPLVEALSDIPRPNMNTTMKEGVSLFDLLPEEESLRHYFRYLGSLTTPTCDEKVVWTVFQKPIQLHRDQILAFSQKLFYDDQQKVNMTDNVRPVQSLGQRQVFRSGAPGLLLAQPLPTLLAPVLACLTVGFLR

Chain of Carbonic anhydrase 1 (P00915 whole entry): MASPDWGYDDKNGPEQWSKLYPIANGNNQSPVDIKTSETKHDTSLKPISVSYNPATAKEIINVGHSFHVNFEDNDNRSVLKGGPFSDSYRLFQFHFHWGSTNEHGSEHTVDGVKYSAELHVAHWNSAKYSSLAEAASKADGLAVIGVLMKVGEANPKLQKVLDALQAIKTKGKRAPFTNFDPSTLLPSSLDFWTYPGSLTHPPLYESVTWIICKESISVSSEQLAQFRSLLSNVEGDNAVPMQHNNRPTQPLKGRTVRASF

Ki (Carbonic anhydrase 2) [nM] | Ki (Carbonic anhydrase 1) [nM] | Ki (Carbonic anhydrase 4) [nM] | SMILES
13 | 15000 | 45 | O=S(=O)(NO)c1ccc(I)cc1
5 | 15000 | 13 | O=[N+]([O-])c1ccccc1S(=O)(=O)NO
9 | 57000 | 70 | O=[N+]([O-])c1ccc(S(=O)(=O)NO)cc1
> 200 | > 200 | > 200 | CC(C(=O)NO)N(Cc1ccc([N+](=O)[O-])cc1)S(=O)(=O)C(F)(F)C(F)(F)C(F)(F)C(F)(F)F (centres undefined)
37 | 62000 | 55 | Nc1ccc(S(=O)(=O)NO)cc1
> 200 | > 200 | > 200 | CC(C(=O)NO)N(Cc1ccc([N+](=O)[O-])cc1)S(=O)(=O)c1c(F)c(F)c(F)c(F)c1F (centres undefined)
36 | 90 | 42 | O=C(CN(Cc1ccccc1)S(=O)(=O)c1c(F)c(F)c(F)c(F)c1F)NO
160 | > 200 | > 200 | CC(C(=O)NO)N(Cc1ccccc1[N+](=O)[O-])S(=O)(=O)c1c(F)c(F)c(F)c(F)c1F (centres undefined)
108 | 140 | 124 | CC(C)C(C(=O)NO)N(Cc1ccccc1)S(=O)(=O)C(F)(F)C(F)(F)C(F)(F)C(F)(F)F (centres undefined)
19 | 15000 | 90 | O=S(=O)(NO)c1ccc(F)cc1
1.1 | 33000 | 16 | O=S(=O)(NO)c1cccc(C(F)(F)F)c1
16 | 21 | 17 | CC(NS(=O)(=O)C(F)(F)C(F)(F)C(F)(F)C(F)(F)F)C(=O)NO (centres undefined)
15 | 1800 | 27 | O=S(=O)(NO)C(F)(F)C(F)(F)C(F)(F)C(F)(F)F
45 | 88 | 48 | CC(C)C(C(=O)NO)N(Cc1ccccc1)S(=O)(=O)c1c(F)c(F)c(F)c(F)c1F (centres undefined)
15 | 18 | 16 | O=C(CNS(=O)(=O)C(F)(F)C(F)(F)C(F)(F)C(F)(F)F)NO
190 | 19000 | 460 | O=S(=O)(Cc1ccccc1)NO
35 | 32 | 30 | COc1ccc(S(=O)(=O)NC(C)C(=O)NO)cc1 (centres undefined)
56 | 100 | 75 | CC(C)CC(C(=O)NO)N(Cc1ccccc1)S(=O)(=O)c1c(F)c(F)c(F)c(F)c1F (centres undefined)
> 200 | > 200 | > 200 | CC(C(=O)NO)N(Cc1ccccc1Cl)S(=O)(=O)c1c(F)c(F)c(F)c(F)c1F (centres undefined)
85 | 105 | 100 | O=C(CN(Cc1ccccc1)S(=O)(=O)C(F)(F)C(F)(F)C(F)(F)C(F)(F)F)NO
> 200 | > 200 | > 200 | COc1ccc(S(=O)(=O)N(Cc2ccccc2[N+](=O)[O-])C(C)C(=O)NO)cc1 (centres undefined)
120 | > 200 | 145 | COc1ccc(S(=O)(=O)N(CC(=O)NO)Cc2ccccc2)cc1
4.7 | – | 56 | CS(=O)(=O)NO

Second part, the compound before the results:

SMILES | Ki (Carbonic anhydrase 2) [nM] | Ki (Carbonic anhydrase 1) [nM] | Ki (Carbonic anhydrase 4) [nM]
CC(C)CC(NS(=O)(=O)c1c(F)c(F)c(F)c(F)c1F)C(=O)NO (centres undefined) | 11 | 10 | 19
Cc1ccc(S(=O)(=O)NO)cc1 | 70 | 51000 | 127
O=[N+]([O-])c1cccc(S(=O)(=O)NO)c1 | 5 | 17000 | 24
COc1ccc(S(=O)(=O)NC(C(=O)NO)C(C)C)cc1 (centres undefined) | 39 | 33 | 38
O=S(=O)(NO)C(F)(F)C(F)(F)C(F)(F)C(F)(F)C(F)(F)C(F)(F)C(F)(F)C(F)(F)F | 9 | 1600 | 21
COc1ccc(S(=O)(=O)N(CC(=O)NO)Cc2ccccc2[N+](=O)[O-])cc1 | 170 | > 200 | 140
O=C(CN(Cc1ccccc1[N+](=O)[O-])S(=O)(=O)c1c(F)c(F)c(F)c(F)c1F)NO | 74 | 127 | 49
CC(C(=O)NO)N(Cc1ccccc1Cl)S(=O)(=O)C(F)(F)C(F)(F)C(F)(F)C(F)(F)F (centres undefined) | > 200 | > 200 | > 200
COc1ccc(S(=O)(=O)NO)cc1 | 51 | 68000 | 110
O=S(=O)(NO)c1c(F)c(F)c(F)c(F)c1F | 0.8 | 30000 | 13
COc1ccc(S(=O)(=O)NO)cc1N | 44 | 41000 | 136
CC(C(=O)NO)N(Cc1ccccc1)S(=O)(=O)C(F)(F)C(F)(F)C(F)(F)C(F)(F)F (centres undefined) | 92 | 121 | 107
Cc1cc(C)c(S(=O)(=O)NO)c(C)c1 | 62 | 72000 | 156
O=C(CNS(=O)(=O)c1c(F)c(F)c(F)c(F)c1F)NO | 8 | 7 | 10
CC(=O)Nc1ccc(S(=O)(=O)NO)cc1 | 29 | 40000 | 40
COc1ccc(S(=O)(=O)NC(CC(C)C)C(=O)NO)cc1 (centres undefined) | 5 | 50 | 39
O=S(=O)(NO)c1ccc(Br)cc1 | 18 | 38000 | 39
CC(C)CC(NS(=O)(=O)C(F)(F)C(F)(F)C(F)(F)C(F)(F)F)C(=O)NO (centres undefined) | 18 | – | 30
CC(C(=O)NO)N(Cc1ccccc1)S(=O)(=O)c1c(F)c(F)c(F)c(F)c1F (centres undefined) | 38 | 84 | 43
O=S(=O)(NO)C(Cl)(Cl)Cl | 150 | 23000 | 210

SMILES | Ki (Carbonic anhydrase 2) [nM] | Ki (Carbonic anhydrase 1) [nM] | Ki (Carbonic anhydrase 4) [nM]
O=C(CN(Cc1ccc([N+](=O)[O-])cc1)S(=O)(=O)c1c(F)c(F)c(F)c(F)c1F)NO | 107 | 150 | 130
O=S(=O)(NO)c1ccc(Cl)cc1 | 21 | 27000 | 120
CC(C(=O)NO)N(Cc1ccccc1[N+](=O)[O-])S(=O)(=O)C(F)(F)C(F)(F)C(F)(F)C(F)(F)F (centres undefined) | > 200 | > 200 | > 200
COc1ccc(S(=O)(=O)N(Cc2ccccc2)C(C(=O)NO)C(C)C)cc1 (centres undefined) | > 200 | > 200 | 185
COc1ccc(S(=O)(=O)N(Cc2ccccc2)C(C)C(=O)NO)cc1 (centres undefined) | 120 | 195 | 136
CN(C)S(=O)(=O)NO | 40 | 12000 | 290
O=[N+]([O-])c1ccc(S(=O)(=O)NO)cc1Cl | 4 | 17000 | 12
O=S(=O)(NO)C(F)(F)F | 30 | 20000 | 16
CC(C)CC(C(=O)NO)N(Cc1ccccc1)S(=O)(=O)C(F)(F)C(F)(F)C(F)(F)C(F)(F)F (centres undefined) | 116 | 180 | 139
COc1ccc(S(=O)(=O)N(Cc2ccccc2)C(CC(C)C)C(=O)NO)cc1 (centres undefined) | > 200 | > 200 | 190
CC(NS(=O)(=O)c1c(F)c(F)c(F)c(F)c1F)C(=O)NO (centres undefined) | 8 | 7 | 10
COc1ccc(S(=O)(=O)N(Cc2ccc([N+](=O)[O-])cc2)C(C)C(=O)NO)cc1 (centres undefined) | > 200 | > 200 | > 200
CC(C)C(NS(=O)(=O)c1c(F)c(F)c(F)c(F)c1F)C(=O)NO (centres undefined) | 11 | 8 | 13
CC(C)C(NS(=O)(=O)C(F)(F)C(F)(F)C(F)(F)C(F)(F)F)C(=O)NO (centres undefined) | 15 | 29 | 20
O=C(O)c1ccccc1S(=O)(=O)NO | 0.9 | 25000 | 12
COc1ccc(S(=O)(=O)N(Cc2ccccc2Cl)C(C)C(=O)NO)cc1 (centres undefined) | > 200 | > 200 | > 200
O=C(CN(Cc1ccc([N+](=O)[O-])cc1)S(=O)(=O)C(F)(F)C(F)(F)C(F)(F)C(F)(F)F)NO | 118 | > 200 | 136
O=S(=O)(NO)c1ccccc1 | 26 | 18000 | 74
COc1ccc(S(=O)(=O)NCC(=O)NO)cc1 | 32 | 30 | 29

Source: ChEMBL document CHEMBL1133677, “Carbonic anhydrase and matrix metalloproteinase inhibitors: sulfonylated amino acid hydroxamates with MMP inhibitory properties act as efficient inhibitors of CA isozymes I, II, and IV, and N-hydroxysulfonamides inhibit both these zinc enzymes” (J Med Chem, 2000)
